The subject of series [1] is HBV (HepG2.117 cell line, inducibly HBV producing). Put plainly: Anti-HBV activity: intracellular HBV DNA by real-time PCR in HepG2.117 cells after 3 days of treatment. It counts as cell-based, hepatitis B virus. The procedure, abridged: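 Tet-off HepG2.117; HBV replication induced (no doxycycline); serial compound dilutions, 3 d; intracellular HBV DNA by real-time PCR, HBV-specific primers/probe.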
In general terms: Quantitative PCR measures a nucleic acid by following its amplification.

The nature of series [2]: in vitro. It counts as cell-based. The settings on record: human, HepG2 or HepG2.117 cells, ATPlite, mean value. The procedure, abridged: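 Luminescent ATP quantitation served as the viability endpoint following a 3- or 4-day incubation with test compounds.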
(In general: In ATP-based viability assays light output follows the ATP content of the culture.)

Where [3] appears, read: 3-days incubation (unmarked values).
[4] abbreviates: Hepatitis B virus, HepG2.117, 72 h, HepG2.117 cells, 3 days of treatment, intracellular HBV DNA by real-time PCR; mean value; read-out: EC50 (μM, mean value).
[5] abbreviates: Hepatitis B virus, HepG2.117, 72 h, HepG2.117 cells, intracellular HBV DNA by real-time PCR, 3 days of treatment, mean value; read-out: EC50 (μM, mean value).
[6] abbreviates: 3-days incubation (not marked with *).

Read-outs that look alike come from different tables or passages of the source. A value given as a limit tells only on which side of the number the result lay.

In the case of `COc1ccccc1-n1c(N[C@H](C)C(F)(F)F)nc2c(c1=O)CCN(C(=O)c1ccc(Cl)c(Cl)c1)C2` (single isomer, unassigned) [Compound C101a], the EC50 (in general, the concentration at which the effect is half-maximal) in series [1] (HepG2.117 cells, 3 days of treatment, intracellular HBV DNA by real-time PCR; mean value; read-out: EC50 (μM, mean value)) is 22.1 µM. Moreover, the CC50 – broadly, the concentration at which the toxic effect on the cells reaches its halfway point – at 3 days in series [2] (setting [3]) came out at 36.9 µM.
For the compound `CC(C)Nc1nc2c(c(=O)[nH]1)CCN(C(=O)c1ccc(Cl)c(Cl)c1)C2` [Compound C42, 7-(3,4-dichlorobenzoyl)-2-[(propan-2-yl)amino]-5,6,7,8-tetrahydropyrido[3,4-d]pyrimidin-4(3H)-one], the concentration giving a half-maximal response (EC50) in series [1] (setting [4]) is 2.79 µM. In addition, in series [2] (setting [3]), the CC50 at 3 days was above 50 µM.
Consider `CNC(=O)c1ccc(-n2c(N[C@@H](C)c3ccc4c(c3)OCO4)nc3c(c2=O)C[C@@H](C)N(C(=O)c2ccc(Cl)c(Cl)c2)C3)cc1` (single isomer, unassigned) [Compound C414b], for which the EC50 in series [1] (setting [5]) worked out at 0.06 µM. In addition, the CC50 at 3 days in series [2] (setting [6]) is above 50 µM.
For `CNC(=O)C12C3C4C1C1C2C3C41n1c(NC(C)C)nc2c(c1=O)C[C@@H](C)N(C(=O)c1ccc(Cl)c(Cl)c1)C2` (some centres unmarked) [Compound C456], in that order: 0.4 µM and above 50 µM.
On to `CC(C)Nc1nc2c(c(=O)n1-c1ccc(-c3ncccn3)cc1)CCN(C(=O)c1ccc(Cl)c(Cl)c1)C2` [Compound C187, 7-(3,4-dichlorobenzoyl)-2-[(propan-2-yl)amino]-3-[4-(pyrimidin-2-yl)phenyl]-5,6,7,8-tetrahydropyrido[3,4-d]pyrimidin-4(3H)-one], for which the EC50 in series [1] (setting [4]) was 0.71 µM. In series [2] (setting [3]), this compound had a CC50 at 3 days above 45 µM.
Turning to `CNC(=O)c1ncc(-n2c(NC)nc3c(c2=O)C[C@@H](C)N(C(=O)c2ccc(Cl)c(Cl)c2)C3)cn1` [Compound C327, 5-[(6R)-7-(3,4-dichlorobenzoyl)-6-methyl-2-(methylamino)-4-oxo-5,6,7,8-tetrahydropyrido[3,4-d]pyrimidin-3(4H)-yl]-N-methylpyrimidine-2-carboxamide], the EC50 in series [1] (setting [4]) was determined as 5.15 µM. For the same compound, the CC50 at 3 days in series [2] (setting [3]) was above 50 µM.
For the compound `CNC(=O)c1ccc(-n2c(N[C@@H](C)c3ccc(OC(F)(F)F)cc3)nc3c(c2=O)C[C@@H](C)N(C(=O)c2ccc(Cl)c(Cl)c2)C3)cn1` [Compound C537], the EC50 in series [1] (setting [5]) was 0.08 µM. The compound also returned a CC50 at 3 days in series [2] (setting [6]) above 50 µM.
For `CC(C)Nc1ncc(-n2c(NC(C)C)nc3c(c2=O)C[C@@H](C)N(C(=O)c2ccc(Cl)c(Cl)c2)C3)cn1` [Compound C279, (6R)-7-(3,4-dichlorobenzoyl)-6-methyl-2-[(propan-2-yl)amino]-3-{2-[(propan-2-yl)amino]pyrimidin-5-yl}-5,6,7,8-tetrahydropyrido[3,4-d]pyrimidin-4(3H)-one], the EC50 in series [1] (setting [4]) was found to be 0.31 µM. This compound showed a CC50 at 3 days in series [2] (setting [3]) above 46 µM.
For `COc1ccc(CNc2nc3c(c(=O)n2-c2ccc(N4CCC(NC(=O)OC(C)(C)C)C4)cc2)CCN(C(=O)c2ccc(Cl)c(Cl)c2)C3)cc1` (centres unmarked) [Compound C161, tert-butyl (1-{4-[7-(3,4-dichlorobenzoyl)-2-{[(4-methoxyphenyl)methyl]amino}-4-oxo-5,6,7,8-tetrahydropyrido[3,4-d]pyrimidin-3(4H)-yl]phenyl}pyrrolidin-3-yl)carbamate], in that order: 2.4 µM and above 50 µM.
For `CC(C)Nc1nc2c(c(=O)n1-c1ccc(C(=O)N3CCN(C)CC3)cc1)C[C@@H](C)N(C(=O)c1ccc(Cl)c(Cl)c1)C2` [Compound C169, (6R)-7-(3,4-dichlorobenzoyl)-6-methyl-3-[4-(4-methylpiperazine-1-carbonyl)phenyl]-2-[(propan-2-yl)amino]-5,6,7,8-tetrahydropyrido[3,4-d]pyrimidin-4(3H)-one], in that order: 0.15 µM and 30.7 µM.
For `COc1ccc(CNc2nc3c(c(=O)[nH]2)CCN(C(=O)c2ccc(Br)c(C)c2)C3)cc1` [Compound C104, 7-(4-bromo-3-methylbenzoyl)-2-{[(4-methoxyphenyl)methyl]amino}-5,6,7,8-tetrahydropyrido[3,4-d]pyrimidin-4(3H)-one], in that order: 1.8 µM and 24.1 µM.
Consider `CC(C)Nc1nc2c(c(=O)n1-c1ccc(-c3cccc(N4CCOCC4)n3)cc1)CCN(C(=O)c1ccc(Cl)c(Cl)c1)C2` [Compound C173, 7-(3,4-dichlorobenzoyl)-3-{4-[6-(morpholin-4-yl)pyridin-2-yl]phenyl}-2-[(propan-2-yl)amino]-5,6,7,8-tetrahydropyrido[3,4-d]pyrimidin-4(3H)-one], for which the EC50 in series [1] (setting [4]) turned out to be 0.88 µM. The same compound registered a CC50 at 3 days in series [2] (setting [3]) of 7.8 µM.
Regarding `CNC(=O)c1ccc(-n2c(NC(C)c3ccccc3OC(F)F)nc3c(c2=O)C[C@@H](C)N(C(=O)c2ccc(Cl)c(Cl)c2)C3)cc1` (some centres unmarked) [Compound C438], in series [1] (setting [5]), the EC50 turned out to be 0.4 µM. Besides, the CC50 at 3 days in series [2] (setting [6]) is 31.2 µM.
For `CNC(=O)c1ccc(-n2c(N[C@H](C)c3ccc(S(C)(=O)=O)cc3)nc3c(c2=O)C[C@@H](C)N(C(=O)c2ccc(Cl)c(Cl)c2)C3)cc1` (single isomer, unassigned) [Compound C412a], in that order: 0.94 µM and above 50 µM.
Regarding `CNC(=O)c1ccc(-n2c(N3CCC3(C)C)nc3c(c2=O)C[C@@H](C)N(C(=O)c2ccc(Cl)c(Cl)c2)C3)cc1` [Compound C303, 4-[(6R)-7-(3,4-dichlorobenzoyl)-2-(2,2-dimethylazetidin-1-yl)-6-methyl-4-oxo-5,6,7,8-tetrahydropyrido[3,4-d]pyrimidin-3(4H)-yl]-N-methylbenzamide], the EC50 in series [1] (setting [4]) is 0.07 µM. Moreover, the CC50 at 3 days in series [2] (setting [3]) was determined as 26.7 µM.
With `COC(=O)c1ccc(-n2c(NC(C)CCCCO)nc3c(c2=O)C[C@@H](C)N(C(=O)c2ccc(Cl)c(Cl)c2)C3)cc1OC` (some centres unmarked) [Compound C670], the EC50 in series [1] (setting [5]) is 0.37 µM. In series [2] (setting [6]), the CC50 at 3 days is above 50 µM.
Turning to `COc1ccc(CNc2nc3c(c(=O)n2-c2cccnc2)CCN(C(=O)c2ccc(Cl)c(Cl)c2)C3)cc1` [Compound C68, 7-(3,4-dichlorobenzoyl)-2-{[(4-methoxyphenyl)methyl]amino}-3-(pyridin-3-yl)-5,6,7,8-tetrahydropyrido[3,4-d]pyrimidin-4(3H)-one], the EC50 in series [1] (setting [4]) is 0.66 µM. For the same compound, the CC50 at 3 days in series [2] (setting [3]) came to 22.4 µM.
For `CNC(=O)c1ccc(-n2c(NC(C)C)nc3c(c2=O)C[C@@H](C)N(C(=O)c2ccc(Cl)c(Cl)c2)C3)c(Cl)c1` [Compound C293, 3-chloro-4-[(6R)-7-(3,4-dichlorobenzoyl)-6-methyl-4-oxo-2-[(propan-2-yl)amino]-5,6,7,8-tetrahydropyrido[3,4-d]pyrimidin-3(4H)-yl]-N-methylbenzamide], in that order: 0.06 µM and 34.9 µM.
For `COc1cccnc1-c1ccc(-n2c(NC(C)C)nc3c(c2=O)CCN(C(=O)c2ccc(Cl)c(Cl)c2)C3)cc1` [Compound C172, 7-(3,4-dichlorobenzoyl)-3-[4-(3-methoxypyridin-2-yl)phenyl]-2-[(propan-2-yl)amino]-5,6,7,8-tetrahydropyrido[3,4-d]pyrimidin-4(3H)-one], in that order: 1.66 µM and 5.3 µM.
In the case of `COc1ccc(CNc2nc3c(c(=O)[nH]2)CCN(C(=O)c2ccc(Br)c(F)c2)C3)cc1` [Compound C69, 7-(4-bromo-3-fluorobenzoyl)-2-{[(4-methoxyphenyl)methyl]amino}-5,6,7,8-tetrahydropyrido[3,4-d]pyrimidin-4(3H)-one], the EC50 in series [1] (setting [4]) was determined as 10 µM. This compound also returned a CC50 at 3 days in series [2] (setting [3]) of 21 µM.
The like results for `Cc1nc(-c2ccc(-n3c(NC(C)C)nc4c(c3=O)C[C@@H](C)N(C(=O)c3ccc(Cl)c(Cl)c3)C4)c(Cl)c2)c[nH]1` [Compound C324, (6R)-3-[2-chloro-4-(2-methyl-1H-imidazol-4-yl)phenyl]-7-(3,4-dichlorobenzoyl)-6-methyl-2-[(propan-2-yl)amino]-5,6,7,8-tetrahydropyrido[3,4-d]pyrimidin-4(3H)-one] were, in that order, 0.41 µM and above 50 µM.
Consider `CNC(=O)c1ccc(-n2c(NC(C)Cn3cncn3)nc3c(c2=O)C[C@@H](C)N(C(=O)c2ccc(Cl)c(Cl)c2)C3)cc1` (some centres unmarked) [Compound C540], for which the EC50 in series [1] (setting [5]) amounted to 15.8 µM. The compound further yielded a CC50 at 3 days in series [2] (setting [6]) above 50 µM.
For `CNC(=O)c1ccc(-n2c(NC3(C)CC3)nc3c(c2=O)C[C@@H](C)N(C(=O)c2ccc(Cl)c(Cl)c2)C3)cc1` [Compound C297, 4-[(6R)-7-(3,4-dichlorobenzoyl)-6-methyl-2-[(1-methylcyclopropyl)amino]-4-oxo-5,6,7,8-tetrahydropyrido[3,4-d]pyrimidin-3(4H)-yl]-N-methylbenzamide], in series [1] (setting [4]), the EC50 is 0.05 µM. Further, the CC50 at 3 days in series [2] (setting [3]) is above 50 µM.
The like results for `COc1ccccc1-n1c(NCc2ccc3c(c2)OCO3)nc2c(c1=O)CCN(C(=O)c1ccc(Cl)c(Cl)c1)C2` [Compound C26, 2-{[(2H-1,3-benzodioxol-5-yl)methyl]amino}-7-(3,4-dichlorobenzoyl)-3-(2-methoxyphenyl)-5,6,7,8-tetrahydropyrido[3,4-d]pyrimidin-4(3H)-one] were, in that order, 1.72 µM and above 50 µM.
The like results for `CCOC(=O)c1ccc(-n2c(NC(CCO)C3CC3)nc3c(c2=O)C[C@@H](C)N(C(=O)c2ccc(Cl)c(Cl)c2)C3)cc1` (stereo partly drawn) [Compound C230, ethyl 4-[(6R)-2-[(1-cyclopropyl-3-hydroxypropyl)amino]-7-(3,4-dichlorobenzoyl)-6-methyl-4-oxo-5,6,7,8-tetrahydropyrido[3,4-d]pyrimidin-3(4H)-yl]benzoate] were, in that order, 1.7 µM and above 50 µM.

Values taken from patent US20230091047A1 (priority 2019, published 2023).
